Assay results reported in patent publication US3940426A, “Process for producing biphenyltetracarboxylic dianhydrides” (UBE Industries, Ltd., priority 1972, dated 1976).

Tests used:
[1] = Solubility of biphenyltetracarboxylic acid isomers in water or an aqueous solvent; assay type: physicochemical; conditions: order among the biphenyltetracarboxylic acid isomers; FIG. 2 in water at varying temperatures
Experimental: The solubility was measured by maintaining each of a mixture of 9.35 g of 2,3,3',4'-biphenyltetracarboxylic acid and 10 ml. of water and a mixture of 7.53 g of 3,4,3',4'-biphenyltetracarboxylic acid and 20 ml. of water at a predetermined temperature to dissolve each of the isomers in water, separating the insoluble matter by filtration, drying the filtrate, and weighing it, to thereby obtained the amount of each isomer dissolved at the specified temperature.

[2] = Solubility of biphenyltetracarboxylic dianhydride isomers in aliphatic acid anhydride or ketone; assay type: physicochemical; conditions: compared with the 3,4,3',4'-isomer; FIG. 1 in acetic anhydride at varying temperatures
Experimental: Referring to FIG. 1, the ordinate represents the solubility (g/acetic anhydride: 10 ml.) and the abscissa the temperature in °C. The measurement of the solubility was performed by maintaining separate mixtures of 2.5 g of the 2,3,3',4'-isomer and 5 ml. of acetic anhydride and a mixture of 1 g of the 3,4,3',4'-isomer and 20 ml. of acetic anhydride at a predetermined temperature to dissolve each of the isomers in the acetic anhydride, separating the insoluble matter by filtration, drying the filtrate and weighing it, to thereby obtain the amount of the isomer dissolved in […] at the specified temperature.

Structure (SMILES) | solubility in water or in an aqueous solvent [1] | solubility in an aliphatic acid anhydride or ketone [2]
O=C(O)c1cccc(-c2cccc(C(=O)O)c2C(=O)O)c1C(=O)O [2,3,2',3'-isomer, 2,3,2',3'-biphenyltetracarboxylic acid] | largest solubility in water or in an aqueous solvent | 
O=C(O)c1ccc(-c2cccc(C(=O)O)c2C(=O)O)cc1C(=O)O [2,3,3',4'-biphenyltetracarboxylic acid] | followed by the 2,3,3',4'-isomer | 
O=C1OC(=O)c2cc(-c3cccc4c3C(=O)OC4=O)ccc21 [2,3,3',4'-biphenyltetracarboxylic dianhydride] |  | more soluble in an aliphatic acid anhydride or ketone than the 3,4,3',4'-isomer
O=C(O)c1ccc(-c2ccc(C(=O)O)c(C(=O)O)c2)cc1C(=O)O [3,4,3',4'-biphenyltetracarboxylic acid] | the 3,4,3',4'-isomer in order of decreasing solubility | 
